Test results published in patent publication US7241763B2, “3-furanyl analogs of toxoflavine as kinase inhibitors” (priority 2002, dated 2007).

Legend:
A2780 cell = assay: Cytotox/survival of A2780 cell after 3 days; type: cell-based; conditions: Homo sapiens, 72 h; A2780 ovarian carcinoma cell line, 3 days; read-out: Cytotox/survival of A2780 cell after 3 days - pIC50 values (converted)
Experimental: In an alternative assay, the growth inhibitory effect of the compounds was tested on the ovarian carcinoma cell line A2780 using art known cytotoxicity assays such as LIVE/DEAD (Molecular Probes) or MTT.

CDC25B = molecular target: T1, CDC25B (Homo sapiens, UniProt P30305); assay: In vitro inhibition of CDC25B using the fluorogenic substrate 3-OMFP (CDC25B WT, Ex. C5); type: biochemical; conditions: 3-OMFP substrate, 1 hour room temperature; read-out: CDC25B WT (Ex. C5): pIC50 values (converted)
T1 sequence (P30305 1-580): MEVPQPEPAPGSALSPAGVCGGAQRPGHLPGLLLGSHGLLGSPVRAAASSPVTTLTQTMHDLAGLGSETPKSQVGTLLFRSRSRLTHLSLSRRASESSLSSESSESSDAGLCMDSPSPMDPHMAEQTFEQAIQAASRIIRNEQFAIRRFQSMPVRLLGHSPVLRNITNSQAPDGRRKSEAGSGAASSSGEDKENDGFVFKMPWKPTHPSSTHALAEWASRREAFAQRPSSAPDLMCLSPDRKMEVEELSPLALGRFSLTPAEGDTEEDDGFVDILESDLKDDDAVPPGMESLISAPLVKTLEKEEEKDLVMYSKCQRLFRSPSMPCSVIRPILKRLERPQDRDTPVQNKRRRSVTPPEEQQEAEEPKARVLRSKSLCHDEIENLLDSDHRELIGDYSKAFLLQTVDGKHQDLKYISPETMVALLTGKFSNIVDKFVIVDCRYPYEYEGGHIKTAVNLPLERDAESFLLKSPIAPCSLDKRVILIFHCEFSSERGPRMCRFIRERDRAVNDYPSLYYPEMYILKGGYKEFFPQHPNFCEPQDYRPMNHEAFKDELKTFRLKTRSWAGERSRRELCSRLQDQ
Experimental: In Vitro Inhibition of CDC25B using the Fluorogenic Substrate 3-OMFP
CDC25B phosphatase activity is assessed using the fluorogenic substrate 3-O-methyl-flurorescein-phosphate (3-OMFP). The phosphatase-reaction is performed for 1 hour at room temperature in a black microtiter plate in a volume of 50 μl. The reaction mixture contains 4 μg/mlCDC25B, 15 μM (3-OMFP), 15 mM Tris, 50 mM NaCl, 1 mM DTT, 1 mM Na2EDTA at pH 8.0 and 0.1% DMSO solution at 10^−5 M and the hits are tested in the same conditions in a full dose/response from 10^−5, 3.10^−6, 10^−6 and 3.10^−7 M. The enzymatic activity is determined by measuring the fluorescent signal at 485 nm (ex.) and 538 (em.).

AKT3 [1] = molecular target: T2, AKT3 (Homo sapiens, UniProt Q9Y243); assay: Cellular inhibition of AKT3 using an ELISA (AKT cel, Ex. C6); type: cell-based; set-up: endogenous in cells; host or cells: MDA-MB 231; conditions: MDA-MB 231 cells, phosphorylated MAPK ELISA, 30 minutes with compound; read-out: AKT cel (Ex. C6): pIC50 values (converted)
T2 sequence (Q9Y243 whole entry): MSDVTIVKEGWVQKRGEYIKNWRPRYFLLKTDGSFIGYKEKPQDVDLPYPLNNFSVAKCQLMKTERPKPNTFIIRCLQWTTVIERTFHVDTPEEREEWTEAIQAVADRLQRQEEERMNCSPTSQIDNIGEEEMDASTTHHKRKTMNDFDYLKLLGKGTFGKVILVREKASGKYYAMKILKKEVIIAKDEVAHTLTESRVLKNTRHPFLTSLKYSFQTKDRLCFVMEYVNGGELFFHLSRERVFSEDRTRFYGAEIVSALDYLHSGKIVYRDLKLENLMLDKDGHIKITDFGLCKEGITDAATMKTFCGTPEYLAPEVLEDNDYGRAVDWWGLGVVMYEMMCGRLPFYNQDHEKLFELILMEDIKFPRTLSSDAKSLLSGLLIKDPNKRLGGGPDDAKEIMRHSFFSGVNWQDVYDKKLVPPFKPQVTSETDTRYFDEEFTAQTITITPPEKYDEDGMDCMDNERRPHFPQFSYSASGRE
Experimental: Cellular Inhibition of AKT3 using an ELISA
The human breast adenocarcinoma cell line (MDA-MB 231) was used in an phosphospecific antibody cell ELISA (PACE) to assess the inhibitory effect of the compounds on AKT3 mediated phosphorylation of mitogen-activated protein kinase (MAPK). In the experiments the MDA-MB 231 cells were serum starved for 24 hours (5% CO2; 37° C.). Subsequently, the cells are incubated at room temperature for 2 hours with 20 μM (in serum free medium) of the phosphatidylinositol 3-kinase inhibitor Ly294002 (Alexis, San Diego, Calif.) prior to the incubation for 30 minutes with the compounds at a final concentration ranging from 1 nM to 3 μM. After fixation (with 4.5% formaldehyde) for 20 minutes and washing with PBS (0.1M) the cells were successively incubated with for 5 minutes with 0.1% Triton X-100 in PBS, for 20 minutes with 0.6% H2O2 and 1 hour with a 2% BSA solution as blocking buffer. […] The OD (490–655 nm) reflected the amount of phosphorylated MAPK and the pIC50 of the compounds was based on their effect with respect to blanco (0.1% DMSO) or an internal reference compound treatment.

AKT3 [2] = molecular target: T2, AKT3; assay: In vitro inhibition of AKT3 using a filter assay (AKT3 pep., Ex. C3); type: biochemical; conditions: histone H2B substrate, filter assay, 25° C. 3 hrs; read-out: AKT3 pep. (Ex. C3): pIC50 values (converted)
Experimental: In Vitro Inhibition of AKT3 using a Filter Assay
In the present AKT3 filter assay, a kinase substrate consisting of a fragment of histone H2B, is incubated with the aforementioned protein in the presence of (^33P) radiolabeled ATP. The (^33P)phosporylated substrate binds to a phosphocellulose cation exchange filter, that can easily be removed from the incubation mixture and counted using a microplate scintillation counter.
AKT3 filter assays were performed at 25° C. for 3 hrs in the presence of 25 mM Hepes, pH 7.0, containing 15 mM MgCl2, 1 mM DTT Each assay was performed in a 100 μl reaction volume containing 111 nM AKT3 (diluted in 25 mM Hepes, pH 7.0, containing 15 mM MgCl2, 1 mM DTT) and the 2.5 μM Histone H2B and 2 nM ATP-P^32. The reaction was terminated by addition of 100 μl 75 mM H3PO4, 90 μl of the assay mixture was filtered through Phosphocellulose cation exchange paper. After five times washing with […] H3PO4, the filterpaper was counting in a microtiterplate scintillation counter.

cdk4 = cdk4 (Homo sapiens, UniProt P11802); assay: In vitro inhibition of cdk4 using a scintillant proximity assay (CDK4 SPA, Ex. C1); type: biochemical; conditions: GST-pRb substrate, 33P-ATP, room temperature 30 minutes; read-out: CDK4 SPA (Ex. C1): pIC50 values (converted)
Sequence of cdk4 (P11802 whole entry): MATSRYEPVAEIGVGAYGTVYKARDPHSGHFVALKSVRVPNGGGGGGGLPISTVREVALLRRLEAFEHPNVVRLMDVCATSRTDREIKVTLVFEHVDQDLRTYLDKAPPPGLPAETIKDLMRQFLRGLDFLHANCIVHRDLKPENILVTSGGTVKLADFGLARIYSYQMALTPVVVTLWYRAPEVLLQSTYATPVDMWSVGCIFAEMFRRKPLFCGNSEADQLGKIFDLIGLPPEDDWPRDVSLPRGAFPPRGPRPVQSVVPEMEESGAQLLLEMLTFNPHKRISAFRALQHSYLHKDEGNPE
Sequence of cdk4 (P24385 whole entry partner): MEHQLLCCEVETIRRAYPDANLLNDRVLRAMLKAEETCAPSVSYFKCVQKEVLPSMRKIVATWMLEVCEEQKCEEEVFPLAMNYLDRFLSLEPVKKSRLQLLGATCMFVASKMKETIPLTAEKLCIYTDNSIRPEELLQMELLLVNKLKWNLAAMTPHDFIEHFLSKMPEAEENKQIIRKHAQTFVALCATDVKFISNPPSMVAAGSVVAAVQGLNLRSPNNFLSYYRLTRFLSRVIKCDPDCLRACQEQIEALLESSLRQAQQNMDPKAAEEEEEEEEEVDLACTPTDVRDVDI
Experimental: In Vitro Inhibition of cdk4 using a Scintillant Proximity Assay
The scintillant proximity assay (SPA) is in general described in U.S. Pat. No. 4,568,649 (Amersham Pharmacia Biotech). In the present cdk4 SPA kinase reaction assay, a kinase substrate consisting of a fragment of the restinoblastoma protein (pRb) tagged with […] (GST), is incubated with the aforementioned protein in the presence of (^33P) radiolabeled ATP. (^33P) phosporylation of the substrate is subsequently measured as light energy emitted using glutathione-coated SPA beads (Amersham Pharmacia Biotech) by trapping and quantifying the binding of the GST tagged and radiolabeled restinoblastoma protein.
The CDK4 SPA kinase reaction is performed at room temperature for 30 minutes in a 96-well microtiter plate. For each of the tested compounds a full dose response —10^−5M to 3.10^−9M—has been performed. Flavopiridol was used as reference compound. The 100 μl reaction volume contains 50 mM Hepes, 10 mM NaF, 10 mM MgCl2, 1 mM Na3VO4 pH 7.5, 1.5 μg CDK4-cell lysate/well, 0.2 μM unlabeled ATP, 1.7 μg/well GST-pRb, 1.7 nM AT^33P and 1 μl of a DMSO solution. The reaction is stopped by diluting the reaction mixture ½ with 0.1 mM Na2EDTA, 0.1 mM non-labeled ATP, 0.05% Triton-X-100 and 10 mg/ml glutathion coated beads in PBS. The microtiterplates are centrifuges at 900 rpm for 10 minutes and the amount of phosphorylated (^33P) pRb is determined by counting (1 min/well) in a microtiterplate scintillation counter.

Compound | melting point [°C] | IC50 (A2780 cell) [nM] | IC50 (CDC25B) [nM] | IC50 (AKT3 [1]) [nM] | IC50 (AKT3 [2]) [nM] | IC50 (cdk4) [nM]
Cn1nc(-c2ccc(-c3cccc(Cl)c3)o2)nc2c(=O)n(C3CCN(Cc4ccccc4)CC3)c(=O)nc1-2 | 210.4 to 241 | – | – | – | – | –
Cn1nc(-c2ccc(-c3ccc(S(=O)(=O)N4CCOCC4)cc3)o2)nc2c(=O)n(C)c(=O)nc1-2 | 264.3 to 273.4 | – | – | – | – | –
Cn1nc(-c2ccc(-c3cccc(CN4CCOCC4)c3)o2)nc2c(=O)n(C)c(=O)nc1-2 [Compound 1] | 209.3 to 219.8 | 61.9 | < 1 | 62.1 | 32.1 | –
Cn1nc(-c2ccc(-c3cccc(CNS(C)(=O)=O)c3)o2)nc2c(=O)n(C)c(=O)nc1-2 [Compound 2] | 215.1 to 236.6 | 490 | 20.8 | 209 | 72.6 | –
Cn1c(=O)nc2n(C3CCCC3)nc(-c3ccc(-c4ccc(CO)cc4)o3)nc-2c1=O [Compound 31] | 182 | 74 | 13.8 | 277 | 44.3 | 137
Cn1c(=O)nc2n(C3CCCC3)nc(-c3ccc(-c4ccc(CN5CCC(N)CC5)cc4)o3)nc-2c1=O [Compound 37] | – | 67.5 | – | 34.4 | 51.8 | –
CC(c1ccccc1)n1nc(-c2ccc(-c3cccc(Cl)c3)o2)nc2c(=O)n(C)c(=O)nc1-2 (stereo not drawn) [Compound 67] | – | 196 | 21.3 | 716 | 161 | –
CC(C)n1nc(-c2ccc(-c3ccc(CN4CCOCC4)cc3)o2)nc2c(=O)n(C)c(=O)nc1-2 [Compound 78] | – | 79.8 | 11.3 | 139 | 57.9 | –
CC(C)n1nc(-c2ccc(-c3ccc(CN(C)CCO)cc3)o2)nc2c(=O)n(C)c(=O)nc1-2 [Compound 87] | 229 | 61.4 | 24.3 | 35.2 | 72.9 | 80.7
Cn1c(=O)nc2n(C3CCCC3)nc(-c3ccc(-c4ccc(S(=O)(=O)N5CCOCC5)cc4)o3)nc-2c1=O [Compound 93] | > 250 | 52.8 | 11 | 471 | 53.6 | –
Cn1c(=O)nc2n(C3CCCC3)nc(-c3ccc(-c4ccc(CN5CCOCC5)cc4)o3)nc-2c1=O [Compound 94] | 255 | 53 | 11.2 | 63.8 | 57.3 | –
Cn1c(=O)nc2n(C3CCNCC3)nc(-c3ccc(-c4cccc(Cl)c4)o3)nc-2c1=O [Compound 96] | > 250 | 10 | 9.18 | 3.41 | 62.1 | –
Cn1c(=O)nc2n(C3CCCC3)nc(-c3ccc(-c4cccc(CN5CCOCC5)c4)o3)nc-2c1=O [Compound 98] | 155 | 107 | 15.1 | 111 | 107 | –
Cn1c(=O)nc2n(C3CCCC3)nc(-c3ccc(-c4ccc(CN5CCC(O)CC5)cc4)o3)nc-2c1=O [Compound 103] | > 250 | 60.8 | 16 | 65.5 | 85.5 | –
Cn1c(=O)nc2n(C3CCCC3)nc(-c3ccc(-c4ccc(CN5CCNCC5)cc4)o3)nc-2c1=O [Compound 105] | > 276.5 | 54.5 | 16.6 | 98.2 | 115 | –
Cn1c(=O)nc2n(C3CCCC3)nc(-c3ccc(-c4ccc(CN5CCN(CCO)CC5)cc4)o3)nc-2c1=O [Compound 106] | 175 | 70.3 | 15.6 | 102 | 84.3 | –
CN(CCO)Cc1ccc(-c2ccc(-c3nc4c(=O)n(C)c(=O)nc-4n(C4CCCC4)n3)o2)cc1 [Compound 107] | > 250 | 60.8 | 16 | 95.7 | 39.5 | –
Cn1c(=O)nc2n(C3CCCC3)nc(-c3ccc(-c4ccc(CN5CCN(S(N)(=O)=O)CC5)cc4)o3)nc-2c1=O [Compound 112] | > 250 | 142 | 19.8 | 202 | 63.7 | 117
Cn1c(=O)nc2n(C3CCCC3)nc(-c3ccc(-c4ccc(CNCCO)cc4)o3)nc-2c1=O [Compound 113] | 240 | 45.1 | 14.2 | 34.8 | 32.5 | –
Cn1c(=O)nc2n(C3CCN(S(N)(=O)=O)CC3)nc(-c3ccc(-c4cccc(Cl)c4)o3)nc-2c1=O [Compound 114] | > 250 | 110 | 15.2 | 187 | 45.2 | –
CONCc1ccc(-c2ccc(-c3nc4c(=O)n(C)c(=O)nc-4n(C4CCCC4)n3)o2)cc1 [Compound 115] | 140 | 46.9 | 13.2 | 74.8 | 48.1 | –
